Laboratory results published in patent US20210087565A1, “ANTISENSE ANTIBIOTICS AND BACTERIAL SECRETION BASED DELIVERY SYSTEM TO ELIMINATE DRUG-RESISTANT BACTERIA” (priority 2018, published 2021).
Where “and” joins values, the source holds several entries; their conditions need not be identical. Equal entries are not always repeated.

Experiments:
ESBL KPN = assay: Potentiation of antibiotics with PNAs (Bliss Independence); assay type: cell-based, Klebsiella pneumoniae; conditions: 10 μM PNA + 2 μg/mL tetracycline
Description: (§1) Combinatorial effects were evaluated using the Bliss Independence model where the S parameter defines a deviation from no interaction as is defined as: […]
(§2) Where ODAB is the OD at saturation time in only antibiotic, OD0 is the OD at saturation in no treatment, ODPNA is the OD at saturation in only antisense-PNA at 10 μM, and ODAB, PNA is the OD at saturation in a combination of antibiotic and antisense-PNA. Saturation time was determined as the time when the no treatment control reached its saturation growth phase. S>0 is a deviation towards synergy and S<0 is a deviation towards antagonism.

NDM-1 KPN [1] = assay: as above; assay type: cell-based, Klebsiella pneumoniae; conditions: 10 μM PNA + 8 μg/mL meropenem, compared to meropenem monotherapy
Description: as §1, §2

[2] = test system: SL1344 infection of MC3T3-E1 osteoblast precursor cells; assay: Salmonella infection of osteoblast precursor cells, T3SS-PNA treatment; assay type: cell-based, Salmonella enterica serovar typhimurium; conditions: 10 μM, multiplicity of infection of 30, 18 hours
Description: FIG. 11. […] Osteoblast precursor cells were grown for 24 hours on tissue culture treated 96-well plates prior to infection with SL1344 at a multiplicity of infection of 30. (A) The antisense inhibitor α-rpsD was added at 10 μM either without infection (No Treatment), after infection (Naked), or during infection (T3SS Transport). (B) After treatment for 18 hours the infection was imaged in brightfield and GFP channel. GFP expression corresponds to an intracellular infection with red arrows indicating hard to see GFP expression.
Osteoblast Precursor Cell Culture: MC3T3-E1 osteoblast precursor cells were stored in liquid nitrogen in growth media supplemented with %10 dimethyl sulfoxide (DMSO, Sigma). Osteoblasts were recovered from freezer stocks and cultured in growth media consisting of α-Minimum Essential Media (α-MEM, Gibco) supplemented with 10% Fetal Bovine Serum (FBS, Advanced, Atlanta Biologics), and 50 units/mL Penicillin-Streptomycin (P/S, Fisher Scientific) at 37° C., 5% CO2, and controlled humidity. For biological replicates a freezer stock, at passage 9, was split three ways and each replicate continuously passaged as individual biological replicates at 80% confluency using 0.25% trypsin (HyClone). […]

NDM-1 KPN [3] = assay: PNA growth assay (optical density) on clinical isolate; assay type: cell-based, Klebsiella pneumoniae
Description: (§3) Bacterial Cell culture: The clinical isolates were obtained from the lab of Nancy Madinger at the University of Colorado Anschutz campus. Clinical isolates were grown in Cation Adjusted Mueller Hinton broth (CAMHB) (Becton, Dickinson and Company 212322) at 37° C. with 225 rpm shaking or on solid CAMHB with 1.5% agar at 37° C. Clinical isolates were maintained as freezer stocks in 90% CAMHB, 10% glycerol at −80° C. Freezer stocks were streaked out onto solid CAMHB and incubated for 16 h to produce single colonies prior to experiments. For each biological replicate, a single colony was picked from solid media and grown for 16 h in liquid CAMHB prior to experiments. Non-clinical isolates, such as E. coli MG1655 (ATCC700926) and Salmonella entorica serovar typhimurium SL1344, were cultured in liquid 2% lysogeny broth (LB) or on 2% LB with 1.5% agar for solid plates. S. typhimurium cultures were supplemented with 30 μg/mL streptomycin and SL1344 strains containing plasmids pFPV (SL1344-mCherry) or pRG1 modified with a lacIq promoter (SL1344-Holin) were supplemented with 100 μg/mL ampicillin. Freezer stocks were stored in 60% LB broth, 40% glycerol at −80° C. Freezer stocks were streaked out onto solid LB and incubated for 16 h to produce single colonies before experiments. For biological replicates, single colonies were started in liquid LB and grown for 16 hours prior to experiments. E. coli MG1655 PNA growth experiments were carried out in M9 media (1×M9 minimal media salts solution (MP Biomedicals), 2.0 mM MgSO4, and 0.1 mM CaCl2 in sterile water) with 0.4% glucose.
(§4) PNA growth assay: Biological replicates were diluted 1:10,000 into treatment condition in 384-well plates and measured for 24 h in a Tecan GENios at 562 nm with a bandwidth of 35 nm. Media absorbance blanks were subtracted from data prior to analysis. Normalized optical density (OD) data is shown normalized to the time point where the “no treatment” growth curves reached saturation phase which varied across biological replicates.

MDR E. coli = assay: as above; assay type: cell-based, Escherichia coli
Description: as §3, §4

[4] = 10 μM PNA, optical density vs no treatment at 16 hours

| Substance | growth with combination therapy (in words) (ESBL KPN) | S-value (Bliss Independence model) (ESBL KPN; S>0 indicates synergy) | growth with combination therapy (in words) (NDM-1 KPN [1]) | Salmonella infection of osteoblast cells (in words) [2] | monotherapy effect (in words) (NDM-1 KPN [3]; 10 μM) | growth inhibition (NDM-1 KPN [3]; [4]) [%] | monotherapy effect (in words) (MDR E. coli) | growth inhibition (MDR E. coli; [4]) |
| --- | --- | --- | --- | --- | --- | --- | --- | --- |
| α-lexA: 12-mer antisense PNA cGGAATGAAAGC (SEQ ID NO. 17) targeting lexA, conjugated to (KFF)3K cell penetrating peptide via AEEA-linker (antisense CGGAATGAAAGC; all peptide nucleic acid (PNA); (KFF)3K cell-penetrating peptide attached via AEEA linker) | significant growth inhibition compared to each monotherapy | positive | – | – | – | – | – | – |
| α-rpsD: 12-mer antisense PNA AGAAAATGGCAA (SEQ ID NO. 19) targeting rpsD, conjugated to (KFF)3K cell penetrating peptide via AEEA-linker (all peptide nucleic acid (PNA); (KFF)3K cell-penetrating peptide attached via AEEA linker) | – | – | significantly reduced the growth | eliminates Salmonella infection | partial monotherapy effect | 65±7.1 | effective in killing | 98±0.7% and 98% |
